Tests used:
[1] = system: ESRD subjects on stable hemodialysis; assay: Example 1: contemplated administration of MK-7 and/or MKH2-7 to ESRD subjects on stable hemodialysis, biomarkers of tissue calcification; format: in vivo, human; details: 10 mg, 25 mg or 50 mg once daily orally
Description: This example describes the administration of MK-7 and/or MKH2-7 to a subject with ESRD and/or on stable hemodialysis. It is contemplated that administration of MK-7 and/or MKH2-7 will result in a change in aortic compliance (via plethysmography), vascular calcification and certain biomarker levels indicative of slowing the progression of, arresting, or reversing tissue calcification.
ESRD subjects on stable hemodialysis orally receive MK-7 and/or MKH2-7 at 10 mg, 25 mg or 50 mg once daily for least 2 weeks, 4 weeks, 6 weeks, 8 weeks, 3 months, 6 months, 1 year, or indefinitely. The dosage form is a 10 mg or 25 mg soft-gel capsule. Two 25 mg capsules are administered once daily to the 50 mg dosage cohort.
Coronary arterial calcium scores (CAC) are used to estimate the extent of calcification of thoracic arteries. A high CAC score is indicative of calcification, and treatment has the aim of arresting the long term increase in CAC score, or reversing it, or slowing the rate of increase. Aortic plethysmography also is used to measure arterial compliance, which decreases as calcification increases. Pulse wave velocity (PWV) also is measured to assess arterial compliance. The foregoing measures are useful in estimating the utility of treatments intended to prevent, slow the progression of, arrest or reverse vascular calcification. These measurements are used pre- and post-treatment with MK-7 and/or MKH2-7 to assess treatment value.
Further, several biomarkers are assessed to determine the efficacy of MK-7 and/or MKH2-7 at the three dose levels. Exemplary biomarkers include PIVKA-II; uncarboxylated and total Matrix Gla Protein (MGP); uncarboxylated, carboxylated and total osteocalcin protein; uncarboxylated, carboxylated and total Protein C, osteoprotegerin, Fetuin A, and hs-CRP. Blood samples are obtained to measure the biomarkers, most conveniently during patient visits for hemodialysis.
It is contemplated that administration of MK-7 and/or MKH2-7 can result in (i) an increase in […], osteoprotegerin, or Fetuin A, which is indicative of slowing the progression of, arresting or reversing tissue calcification, (ii) a decrease in uncarboxylated MGP, uncarboxylated osteocalcin, and/or uncarboxylated Protein C, which is indicative of slowing the progression of, arresting or reversing tissue calcification, and/or (iii) a decrease in hs-CRP, which is indicative of slowing the progression of, arresting or reversing tissue calcification and/or reduced inflammation.
It is contemplated that, following the daily administration of 10 mg, 25 mg or 50 mg MK-7 and/or MKH2-7, at least one of PIVKA-II, under-carboxylated Matrix Gla Protein (MGP), uncarboxylated osteocalcin protein, uncarboxylated Protein C, osteoprotegerin, Fetuin A, and hs-CRP will show a change indicative of slowing the progression of, arresting or reversing tissue calcification.

osteocalcin = details: 100-200 μg/d for 4 to 12 weeks; cited from earlier work

| SMILES | change in Fetuin A [1] | change in hs-CRP [1] | change in osteoprotegerin [1] | change in uncarboxylated MGP [1] | change in uncarboxylated Protein C [1] | change in uncarboxylated osteocalcin [1] | ratio of carboxylated to undercarboxylated osteocalcin (osteocalcin) |
| --- | --- | --- | --- | --- | --- | --- | --- |
| CC(C)=CCC/C(C)=C/CC/C(C)=C/CC/C(C)=C/CC/C(C)=C/CC/C(C)=C/CC/C(C)=C/Cc1c(C)c(O)c2ccccc2c1O [MKH2-7, 2-[(2E,6E,10E,14E,18E,22E)-3,7,11,15,19,23,27-heptamethyloctacosa-2,6,10,14,18,22,26-heptaenyl]-3-methylnaphthalene-1,4-diol] | increase | decrease | increase | decrease | decrease | decrease |  |
| CC(C)=CCC/C(C)=C/CC/C(C)=C/CC/C(C)=C/CC/C(C)=C/CC/C(C)=C/CC/C(C)=C/CC1=C(C)C(=O)c2ccccc2C1=O [MK-7, 2-[(2E,6E,10E,14E,18E,22E)-3,7,11,15,19,23,27-heptamethyloctacosa-2,6,10,14,18,22,26-heptaenyl]-3-methylnaphthalene-1,4-dione] | increase | decrease | increase | decrease | decrease | decrease | significantly and in a dose-dependent manner |

From patent publication US12377060B2, “Methods and compositions for preventing or treating tissue calcification” (Epizon Pharma, Inc., priority 2018, dated 2025)
